One compound from publication PMC6934184, “Selective DNA-PKcs inhibition extends the therapeutic index of localized radiotherapy and chemotherapy” (The Journal of Clinical Investigation, 2019) can be followed below.

The target in the assay is T1, PRKACG (PRKAC gamma) (Homo sapiens, UniProt P22612).
T1 construct: purchased Thermo Fisher Scientific (Life Technologies) SelectScreen
The assay can be described thus: SelectScreen LanthaScreen. In kind it is binding. The settings on record: read-out: % displacement. The method in brief: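 SelectScreen broad panel; activity (Z'LYTE, Adapta) plus binding formats. ATP: Km app for CSF1R Z'LYTE; 10 for CAMK1 Adapta. Readout = % per kinase.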

T1 sequence (P22612 whole entry): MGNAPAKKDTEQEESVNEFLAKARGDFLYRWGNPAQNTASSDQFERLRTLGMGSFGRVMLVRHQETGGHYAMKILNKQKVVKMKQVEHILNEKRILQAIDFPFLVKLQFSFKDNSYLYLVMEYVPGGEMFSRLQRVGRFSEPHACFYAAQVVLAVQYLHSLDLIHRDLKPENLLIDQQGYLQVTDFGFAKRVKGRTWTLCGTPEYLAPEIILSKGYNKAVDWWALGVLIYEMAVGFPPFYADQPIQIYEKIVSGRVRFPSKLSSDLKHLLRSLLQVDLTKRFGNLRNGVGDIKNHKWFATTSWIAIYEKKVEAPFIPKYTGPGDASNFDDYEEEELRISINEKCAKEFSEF

As to `CN(C(=O)CN1CCOCC1)c1ccc2sc3c(-c4cccc5c(=O)cc(N6CC7CCC(C6)O7)oc45)cccc3c2c1` [NU5455], the inhibition at 1 µM is -0.2%.
